“Also recorded” adds a separate entry of the source. Structures can show the parent of a compound that is named as a salt.

Here are results for two compounds from patent publication US11510886B2, “Metformin amino acid compounds and methods of using the same” (Laboratorios Silancs S.A. DE C.V., priority 2016, dated 2022).

One assay deals with GLUT4. The assay is described as follows: GLUT4-GFP transport to plasma membrane in NIH-3T3-L1 adipocytes. In kind it is cell-based, Mice. The settings on record: confocal microscopy (FIG. 75). On the procedure:
FIG. 75. […] NIH-3T3-L1 cells were transfected with a construction expressing GLUT4 fused with Green Fluorescent Protein-GFP (Addgene). Transfected cells were selected by flow cytometry, taking advantage of GFP fluorescence, and cultured in DMEM supplemented with 10% FBS. […] Images were analyzed with the WCIF ImageJ software to detect colocalization of GPBP (red) with GLUT4 (green). […].

For assay [1], the system named is RAW264.7 macrophages and L1 adipocytes co-cultures. The assay is described as follows: Cytometric analysis of RAW + L1 co-cultures. Type of assay: cell-based, Mice. The note with it: for EVENTS, F4/80^+CD86^− (first line) / %, F4/80^+CD86^− (second line) / EVENTS, F4/80^+CD86^− (second line) / %, F4/80^+CD86^− (first line) / %, F4/80^+: 10 mM, 24 hours; for %, F4/80^+CD86^− (second line): M1 macrophage percentage of total macrophages; for EVENTS, F4/80^+CD86^− (second line): M1 macrophages; for %, F4/80^+CD86^− (first line): of total macrophages; for %, F4/80^+: total macrophages; for reduction of the proportion of macrophages in M1: co-cultures. The source says:
One of the key pathogenic events in hyperglycemia of obese patients is the emergence of a pathogenic feedback between adipose tissue and macrophages of the immune system, in which adipocytes attract macrophages, polarizing them to pro-inflammatory phenotypes, and polarized macrophages secrete cytokines, promoting resistance to adipocyte insulin (Johnson A M, Olefsky J M. Cell. 2013; 152:673-84). To reproduce this pathogenic dialogue ex vivo and investigate the activity of SLNs compounds thereon, cytometric techniques allowing the discrimination between these cell lines and determination of phenotypic changes in macrophages in response to individual compounds (Table 18) were used.
RAW264.7 macrophages were added to adipocyte cultures, and the co-culture was maintained in DMEM supplemented with 10% FBS and antibiotics for 8 hours. […]. Next, cells were washed with PBS and collected by mechanical methods (without trypsin) to prevent protein loss from the cell surface. Cells were then blocked (FcBlock, BD Pharmingen) for 15 minutes at 4° C., and incubated for 20-30 minutes at 4° C. in darkness with anti-mouse F4/80 (eBioscience), conjugated with PerCP-Cy5.5, to mark macrophages, and anti-mouse CD86 (BioLegend), conjugated with PE-Cy7.7, to mark macrophages M1 specifically. Afterwards, cells were washed three times with PBS and centrifuged (500×g, 10 minutes, 4° C.), after which they were analyzed with a cytometer (FACSVerse, BD). In Table 6, the M1 macrophage percentage of the total macrophages analyzed (burgundy) for each treatment is highlighted in yellow.

A further assay deals with (NZB×NZW) F1 mice. The assay is described as follows: Proteinuria and renal lupus in (NZB×NZW) F1 mice. In kind it is in vivo. The note with it: for number of mice with a pathological grade above 3: kidneys at week 35 (FIG. 84).
A further assay has as its system blood glucose level. The assay is described as follows: Effect of metformin compounds on the glucokinetic profile after oral glucose overload. Type of assay: in vivo, Rat. The note with it: rat, 750 mg/kg referred to metformin base, mean ± SD; for Blood glucose level, 0.25 h post-glucose overload / Blood glucose level, 1 h post-glucose overload / Blood glucose level, 4 h post-glucose overload / Blood glucose level, pre-glucose overload: *p<0.05 vs vehicle; for Blood glucose level, 3 h post-glucose overload: *p<0.05, **p<0.01 vs vehicle.

A further assay deals with T1, GPBP (Homo sapiens, UniProt Q9Y5P4).
T1 sequence (Q9Y5P4 1-624): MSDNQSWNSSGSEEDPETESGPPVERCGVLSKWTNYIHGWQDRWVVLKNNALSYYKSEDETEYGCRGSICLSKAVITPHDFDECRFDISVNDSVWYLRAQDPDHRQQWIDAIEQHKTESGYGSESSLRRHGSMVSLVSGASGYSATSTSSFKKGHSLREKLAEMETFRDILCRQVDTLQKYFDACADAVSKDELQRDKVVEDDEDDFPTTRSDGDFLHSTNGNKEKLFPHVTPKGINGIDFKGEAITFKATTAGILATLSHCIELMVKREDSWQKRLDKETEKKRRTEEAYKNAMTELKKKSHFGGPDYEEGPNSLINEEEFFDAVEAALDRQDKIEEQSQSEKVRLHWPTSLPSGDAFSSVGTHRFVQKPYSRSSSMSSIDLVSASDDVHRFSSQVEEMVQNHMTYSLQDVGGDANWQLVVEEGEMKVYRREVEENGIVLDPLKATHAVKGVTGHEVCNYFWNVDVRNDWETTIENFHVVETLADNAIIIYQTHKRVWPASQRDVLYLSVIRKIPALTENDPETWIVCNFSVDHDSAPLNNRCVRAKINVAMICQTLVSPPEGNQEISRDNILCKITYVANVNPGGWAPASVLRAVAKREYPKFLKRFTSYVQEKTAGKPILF
The assay is described as follows: In vitro (auto)phosphorylation of recombinant FLAG-GPBP. Type of assay: biochemical. Also on record: made in house; host or cells: Pichia pastoris. The note with it: for GPBP in vitro kinase activity (autophosphorylation): β-glycerophosphate phosphorylation solution pH 7.0, [γ-32P]ATP, autoradiography (FIG. 64). On the procedure: FIG. 64. […]. Recombinant FLAG-GPBP, in similar quantities, expressed in yeast Pichia pastoris (Invitrogen) and purified with anti-FLAG resin (Sigma), as described above (Raya et al. J Biol Chem. 1999; […]. The reaction cocktails (25 μl) were incubated at 30° C. and stirred (350 rpm) for 15 minutes, then analyzed using PAGE standard procedures in the presence of SDS and β-mercaptoethanol, and electrotransferred to PVDF membrane (Immobilon P, Millipore). Membranes were then exposed to autoradiography (32P) and subsequently sent for incubation with anti-FLAG antibodies, peroxidase-labelled; ECL Prime (GE Healthcare) (WB anti-FLAG) was used for developing.
[…]. Then, electrophoresis in 10% polyacrylamide gel and electroblotting to PVDF membrane were applied. Autoradiography was applied to membranes by exposure to photographic films (Amersham Hyperfilm MP, GE Healthcare Lifesciences). After autoradiography, the membranes were blocked with 5% skimmed milk in TBST and incubated with anti-FLAG (Sigma) monoclonal antibodies and secondary antibodies against mouse IgG conjugated to peroxidase (Promega).

Take `CN(C)C(=N)N=C(N)N` [Metformin hydrochloride, metformin hydrochloride, reference compound]: the “distribution of GPBP and GLUT4 in L1 adipocytes” value with GLUT4 was “low presence in secretory vesicles”. In assay [1], the “EVENTS, F4/80^+CD86^− (first line)” value is 551; the “%, F4/80^+CD86^− (second line)” value amounted to 65.76%; the “EVENTS, F4/80^+CD86^− (second line)” value is reported as 1,058; the “%, F4/80^+CD86^− (first line)” value came out at 34.24%. Moreover, in assay [1], the “%, F4/80^+” value is 100.00% and the “reduction of the proportion of macrophages in M1” value is on record as “lowest activity”. In addition, the deaths entry with (NZB×NZW) F1 mice (from week 33 onwards) is recorded as “began to die”. Further, the “number of mice with a pathological grade above 3” value with (NZB×NZW) F1 mice is on record as 7. Moreover, in the assay on blood glucose level, the “Blood glucose level, 0.25 h post-glucose overload” value turned out to be 93.75 ± 15.78 mg/dL; the “Blood glucose level, 0.5 h post-glucose overload” value is given as 89.50 ± 9.98 mg/dL; the “Blood glucose level, 1 h post-glucose overload” value came to 88.25 ± 10.63 mg/dL; the “Blood glucose level, 2 h post-glucose overload” value was 74.00 ± 10.58 mg/dL. In the assay with blood glucose level, the “Blood glucose level, 3 h post-glucose overload” value was found to be 85.75 ± 7.37 mg/dL; the “Blood glucose level, 4 h post-glucose overload” value turned out to be 83.75 ± 7.23 mg/dL; the “Blood glucose level, 6 h post-glucose overload” value is listed as 89.00 ± 11.80 mg/dL; the “Blood glucose level, pre-glucose overload” value is reported as 77.00 ± 8.08 mg/dL. Moreover, the “GPBP in vitro kinase activity (autophosphorylation)” value at GPBP is “moderate activator”.

For the compound metformin lysinate, the “distribution of GPBP and GLUT4 in L1 adipocytes” value in the assay with GLUT4 is listed as “widely located in the plasma membrane”. Further, in assay [1], the “EVENTS, F4/80^+CD86^− (first line)” value is given as 566; the “%, F4/80^+CD86^− (second line)” value was determined as 62.96%; the “EVENTS, F4/80^+CD86^− (second line)” value came out at 962; the “%, F4/80^+CD86^− (first line)” value is listed as 37.04%. Moreover, in assay [1], the “%, F4/80^+” value worked out at 100.00% and the “reduction of the proportion of macrophages in M1” value is listed as “strongest effect”. The proteinuria result in the assay on (NZB×NZW) F1 mice (100 mg/kg/day, IP 5 days from week 16, then oral in drinking water, vs control, listed as SLN10) is listed as “most effective; also recorded: significantly less proteinuria; also recorded: reduced proteinuria”. For the same compound, the “autoantibody (anti-ssDNA IgG) titers” value in the assay on (NZB×NZW) F1 mice (FIG. 85, Control vs. SLN10 p=0.0238) is recorded as “reduces antibodies titers; also recorded: reduced titers by half”. The “number of mice with a pathological grade above 3” value in the assay with (NZB×NZW) F1 mice came to 3. Besides, the “circulating GPBP levels (cGPBP)” value with (NZB×NZW) F1 mice (plasma, before steady increase of proteinuria (FIG. 86)) was “showed no increase”. Further, in the assay with blood glucose level, the “Blood glucose level, 0.25 h post-glucose overload” value is on record as 108.33 ± 14.57 mg/dL; the “Blood glucose level, 0.5 h post-glucose overload” value worked out at 101.00 ± 15.13 mg/dL; the “Blood glucose level, 1 h post-glucose overload” value is reported as 106.00 ± 15.72 mg/dL; the “Blood glucose level, 2 h post-glucose overload” value is given as 94.00 ± 19.47 mg/dL. Also, in the assay on blood glucose level, the “Blood glucose level, 3 h post-glucose overload” value was determined as 84.67 ± 7.09 mg/dL; the “Blood glucose level, 4 h post-glucose overload” value is given as 89.00 ± 5.29 mg/dL; the “Blood glucose level, 6 h post-glucose overload” value is 98.33 ± 9.07 mg/dL; the “Blood glucose level, pre-glucose overload” value worked out at 93.33 ± 22.48 mg/dL. The “GPBP inhibition depending on reaction medium” value at GPBP (Na buffer: 25 mM Tris-HCl pH 7.4, 150 mM NaCl (FIG. 66)) is listed as “inhibits GPBP in Na buffer”. Further, the “active ingredient concentration corresponding to 1 mM” value on GPBP (in vitro assays, pH 7.0, applicant's estimate) was 8.6 µM. On GPBP (listed as SLN10), the “GPBP in vitro kinase activity (autophosphorylation)” value is “inhibits GPBP in vitro kinase activity; also recorded: kinase activity inhibitors”.
